Results taken from paper PMC5797045, “Characterization of CDK(5) inhibitor, 20-223 (aka CP668863) for colorectal cancer therapy” (Oncotarget, 2017).

Tests used:
CDK5 = target: T1, CDK5 (Homo sapiens, UniProt Q00535); experiment: cell-free kinase assay, 10-point dose response; format: biochemical
T1 construct: with p35

CDK2 = target: T2, CDK2 (Homo sapiens, UniProt P24941); experiment: cell-free kinase assay, 10-point dose response; format: biochemical
T2 construct: with Cyclin E

T1 sequence (Q00535 whole entry): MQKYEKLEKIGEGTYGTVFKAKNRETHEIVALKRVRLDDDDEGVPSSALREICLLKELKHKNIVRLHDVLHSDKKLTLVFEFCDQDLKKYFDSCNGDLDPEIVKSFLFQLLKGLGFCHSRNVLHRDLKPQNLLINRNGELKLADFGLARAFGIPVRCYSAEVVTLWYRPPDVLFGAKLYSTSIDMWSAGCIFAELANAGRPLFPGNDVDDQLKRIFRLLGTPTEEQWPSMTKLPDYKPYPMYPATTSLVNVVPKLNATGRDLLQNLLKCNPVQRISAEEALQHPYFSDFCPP
T1 sequence (Q15078 2-307 partner): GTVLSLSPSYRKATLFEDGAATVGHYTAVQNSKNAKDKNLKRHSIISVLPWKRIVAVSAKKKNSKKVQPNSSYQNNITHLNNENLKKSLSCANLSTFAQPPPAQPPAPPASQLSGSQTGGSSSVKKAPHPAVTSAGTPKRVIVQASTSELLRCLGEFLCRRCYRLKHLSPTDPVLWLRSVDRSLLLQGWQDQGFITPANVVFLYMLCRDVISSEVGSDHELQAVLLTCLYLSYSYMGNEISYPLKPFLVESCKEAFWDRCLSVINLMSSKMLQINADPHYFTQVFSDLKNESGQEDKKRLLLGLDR

IC50 (CDK5): 8.8 nM
IC50 (CDK2): 6 nM
SMILES: O=C(Cc1ccc2ccccc2c1)Nc1cc(C2CCC2)[nH]n1 [20-223]
